Calls of active or inactive are those of the source.
Tests used:
[1] = biological target: T1, Zinc finger protein mex-5 (Caenorhabditis elegans, UniProt Q9XUB2); test: potency of MEX-5 RNA-binding blockers – biochemical, C. elegans, fluorescence polarization, dose response (AID 1960)
T1 sequence (Q9XUB2 whole entry): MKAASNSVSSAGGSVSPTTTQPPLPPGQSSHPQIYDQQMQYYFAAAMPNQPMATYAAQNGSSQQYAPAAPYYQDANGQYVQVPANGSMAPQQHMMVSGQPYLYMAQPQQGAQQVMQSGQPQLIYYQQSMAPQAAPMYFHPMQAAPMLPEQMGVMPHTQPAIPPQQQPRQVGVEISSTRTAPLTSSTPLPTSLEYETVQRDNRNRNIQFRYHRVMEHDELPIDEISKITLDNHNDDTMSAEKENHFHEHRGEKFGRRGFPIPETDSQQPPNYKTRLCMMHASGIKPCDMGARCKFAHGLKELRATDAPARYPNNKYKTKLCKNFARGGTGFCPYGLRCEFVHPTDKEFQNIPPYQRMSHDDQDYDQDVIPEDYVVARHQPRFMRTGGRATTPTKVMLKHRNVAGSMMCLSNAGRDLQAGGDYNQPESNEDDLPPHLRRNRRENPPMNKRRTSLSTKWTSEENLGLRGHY

[2] = biological target: T2, RNA-binding protein pos-1 (Caenorhabditis elegans, UniProt G5EF15); test: disruptors of C. elegans POS-1 RNA interaction – biochemical, fluorescence polarization, dose response (AID 1964);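 note: purified POS-1 fused to maltose binding protein made in E. coli; potency of compounds blocking POS-1 binding to fluorescent RNA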
T2 sequence (G5EF15 whole entry): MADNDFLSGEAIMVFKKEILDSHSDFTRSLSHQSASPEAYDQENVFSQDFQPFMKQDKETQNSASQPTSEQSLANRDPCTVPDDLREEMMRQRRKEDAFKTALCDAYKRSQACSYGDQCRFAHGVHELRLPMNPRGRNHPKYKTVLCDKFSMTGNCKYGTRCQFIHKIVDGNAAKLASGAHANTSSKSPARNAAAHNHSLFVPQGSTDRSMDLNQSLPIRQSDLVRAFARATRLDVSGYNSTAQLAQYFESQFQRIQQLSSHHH

[3] = alpha-synuclein stem-loop luciferase translation blockers – H4 neuroglioma cells, luminescence, confirmation (AID 1988); assay type: functional, cell-based
[4] = Luminescence Cell-Based Dose Response HTS to Identify Inhibitors of 5'UTR Stem-Loop Driven Prion Protein mRNA Translation in H4 Neuroglioblastoma Cells. [Related pubchem assays: 1827 (Project Summary), 1813 (Primary HTS)]; assay type: functional
[5] = luciferase reporter signal suppression in cells – H4 neuroglioma cells, luminescence, dose response (AID 1990); assay type: functional, cell-based
[6] = Luminescence Cell-Based Dose Confirmation HTS to Identify Inhibitors of Platelet Dense Granule Release. [Related pubchem assays: 1663 (Primary HTS), 1678 (Summary of Project)]; assay type: functional
[7] = biological target: Luciferin 4-monooxygenase (Photinus pyralis, UniProt P08659); test: inhibition of purified Photinus pyralis luciferase – biochemical, luminescence, dose response (AID 1891)
Cytochrome P450 1A2 = biological target: T3, Cytochrome P450 1A2 (Homo sapiens, UniProt P05177);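 note: PubChem cytochrome P450 panel assay, CYP1A2 panel member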
T3 sequence (P05177 whole entry): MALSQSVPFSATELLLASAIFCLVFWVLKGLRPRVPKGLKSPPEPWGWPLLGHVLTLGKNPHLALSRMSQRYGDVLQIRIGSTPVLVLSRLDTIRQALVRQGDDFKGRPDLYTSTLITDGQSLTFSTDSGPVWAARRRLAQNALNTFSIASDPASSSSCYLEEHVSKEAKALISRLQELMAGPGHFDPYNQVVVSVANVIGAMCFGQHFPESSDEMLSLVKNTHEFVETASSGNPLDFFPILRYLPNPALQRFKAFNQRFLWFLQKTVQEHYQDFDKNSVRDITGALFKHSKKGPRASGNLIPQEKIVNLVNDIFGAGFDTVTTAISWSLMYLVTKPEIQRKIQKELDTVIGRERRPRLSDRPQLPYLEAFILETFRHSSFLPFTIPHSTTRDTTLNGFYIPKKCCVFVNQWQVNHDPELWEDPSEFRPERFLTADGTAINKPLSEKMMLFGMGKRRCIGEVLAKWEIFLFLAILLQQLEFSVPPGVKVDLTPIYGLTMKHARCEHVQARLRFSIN

Cytochrome P450 2C19 = Cytochrome P450 2C19 (Homo sapiens, UniProt P33261); test: Cytochrome panel assay with activity outcomes. Panel member name: p450-cyp2c19 Compounds with AC50 equal or less than 10 uM are considered active; assay type: functional; settings: read-out: AC50
Cytochrome P450 3A4 = Cytochrome P450 3A4 (Homo sapiens, UniProt P08684);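 note: CYP3A4 tested as one member of a cytochrome P450 panel screen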
[8] = Trypanosoma cruzi growth suppression in host cells – NIH3T3 host cells, beta-gal luminescence, confirmation (AID 2044); assay type: functional, cell-based;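 note: intracellular parasites grown in NIH/3T3 mouse fibroblasts as host cells; luminescent beta-galactosidase reporter signal from transgenic T. cruzi replicating inside host cells; inhibitors lower the luminescence signal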
Streptokinase A = biological target: T4, Streptokinase A (Streptococcus pyogenes serotype M1, UniProt P10520); test: viability-normalized secreted streptokinase activity reduction – plasminogen activation absorbance, OD405, dose response (AID 1914); assay type: functional, Streptococcus pyogenes M1 GAS;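 note: secreted streptokinase activity via plasminogen activation per viability signal from cell pellet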
T4 sequence (P10520 whole entry): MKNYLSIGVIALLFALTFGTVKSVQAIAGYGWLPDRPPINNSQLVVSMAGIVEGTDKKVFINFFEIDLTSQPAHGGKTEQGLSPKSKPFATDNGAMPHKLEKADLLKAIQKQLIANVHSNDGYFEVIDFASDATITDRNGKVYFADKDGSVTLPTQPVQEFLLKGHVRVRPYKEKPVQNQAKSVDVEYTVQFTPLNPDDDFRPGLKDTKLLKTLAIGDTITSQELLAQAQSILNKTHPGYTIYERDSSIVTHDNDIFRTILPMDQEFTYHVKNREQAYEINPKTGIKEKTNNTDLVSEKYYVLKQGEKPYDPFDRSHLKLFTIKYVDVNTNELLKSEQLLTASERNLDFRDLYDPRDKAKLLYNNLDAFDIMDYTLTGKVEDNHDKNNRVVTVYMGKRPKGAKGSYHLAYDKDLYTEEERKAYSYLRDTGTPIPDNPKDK

[9] = NIH3T3 cell viability loss – ATP luminescence, mouse fibroblasts, counter-screen, dose response (AID 2010); assay type: functional, cell-based;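 note: cells exposed to compound for about 90 hours before reading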
Streptococcus = test: GAS UMAA2166 growth inhibition – luminescence, BacTiterGlo, counter-screen for streptokinase expression inhibitor project, dose response (AID 1915); assay type: functional, organism-based;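 note: potency for reduction of bacterial viability or growth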
[10] = tested on: Streptococcus sp. 'group A'; test: Streptococcus pyogenes SK(-)GAS viability under kanamycin – luminescence, BacTiterGlo, confirmation, counter-screen for streptokinase expression inhibitor project, dose response (AID 1900); assay type: functional, organism-based
Cytochrome P450 2C9 = Cytochrome P450 2C9 (Homo sapiens, UniProt P11712)
Sequence of Cytochrome P450 2C9 (P11712 whole entry): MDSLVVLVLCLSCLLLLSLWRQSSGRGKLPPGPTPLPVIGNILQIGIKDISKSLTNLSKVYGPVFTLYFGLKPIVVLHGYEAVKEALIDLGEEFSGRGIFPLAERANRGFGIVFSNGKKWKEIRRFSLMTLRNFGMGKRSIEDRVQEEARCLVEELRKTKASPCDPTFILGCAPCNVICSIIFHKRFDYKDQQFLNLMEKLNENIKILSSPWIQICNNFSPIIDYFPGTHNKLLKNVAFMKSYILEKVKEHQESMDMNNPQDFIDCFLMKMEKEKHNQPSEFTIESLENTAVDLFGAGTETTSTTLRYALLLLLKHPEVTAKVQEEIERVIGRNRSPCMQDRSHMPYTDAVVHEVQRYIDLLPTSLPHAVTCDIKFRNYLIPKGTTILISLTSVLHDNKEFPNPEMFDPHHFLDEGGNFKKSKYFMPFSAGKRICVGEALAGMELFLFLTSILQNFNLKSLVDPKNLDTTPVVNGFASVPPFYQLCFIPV

Sequence of Luciferin 4-monooxygenase (P08659 whole entry): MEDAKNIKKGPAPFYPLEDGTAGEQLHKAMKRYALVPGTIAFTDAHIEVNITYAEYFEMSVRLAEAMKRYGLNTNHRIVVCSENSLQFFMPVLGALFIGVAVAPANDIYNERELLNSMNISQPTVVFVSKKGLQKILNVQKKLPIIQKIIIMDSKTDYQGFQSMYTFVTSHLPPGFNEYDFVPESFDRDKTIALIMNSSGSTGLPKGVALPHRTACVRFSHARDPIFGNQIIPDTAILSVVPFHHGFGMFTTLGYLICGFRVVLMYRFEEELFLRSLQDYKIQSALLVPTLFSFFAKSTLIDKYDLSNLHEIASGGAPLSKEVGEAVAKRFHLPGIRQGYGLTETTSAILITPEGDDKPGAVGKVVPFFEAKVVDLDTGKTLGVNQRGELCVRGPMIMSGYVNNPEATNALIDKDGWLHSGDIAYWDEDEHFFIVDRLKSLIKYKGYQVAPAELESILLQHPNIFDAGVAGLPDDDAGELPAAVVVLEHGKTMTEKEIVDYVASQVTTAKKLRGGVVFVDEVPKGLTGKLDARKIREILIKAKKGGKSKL
Sequence of Cytochrome P450 3A4 (P08684 whole entry): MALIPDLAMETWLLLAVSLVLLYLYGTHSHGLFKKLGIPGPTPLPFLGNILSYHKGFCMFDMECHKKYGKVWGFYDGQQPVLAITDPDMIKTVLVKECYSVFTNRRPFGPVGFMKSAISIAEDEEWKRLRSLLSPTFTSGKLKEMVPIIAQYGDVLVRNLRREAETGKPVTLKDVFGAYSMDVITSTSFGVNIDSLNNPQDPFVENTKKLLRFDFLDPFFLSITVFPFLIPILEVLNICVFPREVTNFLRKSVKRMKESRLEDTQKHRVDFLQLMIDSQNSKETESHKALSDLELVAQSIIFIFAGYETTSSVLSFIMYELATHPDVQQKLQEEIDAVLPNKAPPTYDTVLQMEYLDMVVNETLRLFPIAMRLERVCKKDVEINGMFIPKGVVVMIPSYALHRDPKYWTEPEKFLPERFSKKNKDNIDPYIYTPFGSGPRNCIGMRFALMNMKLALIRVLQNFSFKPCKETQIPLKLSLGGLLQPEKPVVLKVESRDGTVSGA
Sequence of Cytochrome P450 2C19 (P33261 whole entry): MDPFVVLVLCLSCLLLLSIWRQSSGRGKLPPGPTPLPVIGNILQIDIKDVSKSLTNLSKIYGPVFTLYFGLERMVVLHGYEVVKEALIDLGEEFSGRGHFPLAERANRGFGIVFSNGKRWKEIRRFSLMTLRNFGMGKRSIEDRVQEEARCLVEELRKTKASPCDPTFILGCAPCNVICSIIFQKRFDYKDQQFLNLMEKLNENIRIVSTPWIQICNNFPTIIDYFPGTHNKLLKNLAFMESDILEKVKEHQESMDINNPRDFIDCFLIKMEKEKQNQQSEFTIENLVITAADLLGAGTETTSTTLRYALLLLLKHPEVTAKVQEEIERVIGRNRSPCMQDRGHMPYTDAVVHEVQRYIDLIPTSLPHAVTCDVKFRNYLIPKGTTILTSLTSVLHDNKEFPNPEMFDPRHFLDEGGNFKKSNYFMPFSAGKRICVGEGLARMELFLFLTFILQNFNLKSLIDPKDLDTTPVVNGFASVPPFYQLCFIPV

Row | Structure (SMILES) | EC50 [1] | EC50 [2] | EC50 [6] | EC50 [7] | other results
1 | CC(C)CNC(=O)C1Nc2ccccc2C2C=CCC12 (centres undefined) | > 300 µM (not active) | > 300 µM (not active) | – | – | –
2 | N#C/C(=C\N1CCN(Cc2ccc3c(c2)OCO3)CC1)c1nc2ccccc2s1 | > 300 µM (not active) | > 300 µM (not active) | – | – | –
3 | Cc1cc(C=C2C(=O)N(C)C(=S)N(C)C2=O)c(C)n1C1CCCC1 | 129 µM (active) | 189 µM (active) | – | – | –
4 | Cc1csc(NC(=O)c2cc3c(s2)CCCCC3)n1 | – | – | – | – | EC50 [3]: 3.58 µM (active); EC50 [4]: 2.57 µM (active)
5 | O=C(NC1CC1)C1=C[C@@H](c2coc3ccccc3c2=O)C[C@@H](OCc2ccc(CO)cc2)O1 | – | – | – | – | EC50 [5]: > 120 µM (not active); EC50 [3]: > 120 µM (not active); EC50 [4]: > 120 µM (not active)
6 | CC1CCN(S(=O)(=O)c2ccc3c(c2)N(CC(=O)N(C)Cc2ccco2)C(=O)CO3)CC1 | – | – | – | – | EC50 [5]: > 120 µM (not active); EC50 [3]: 21.2 µM (active); EC50 [4]: > 120 µM (not active)
7 | CC(=O)N/C=C1\C(=O)N(C)C(=O)C(C#N)=C1C | 34.9 µM (active) | 36.1 µM (active) | – | – | –
8 | O=Cc1cn(Cc2ccc(F)cc2Cl)c2ccccc12 | – | – | – | – | EC50 [5]: 16.2 µM (active); EC50 [3]: 12.4 µM (active); EC50 [4]: 16.8 µM (active)
9 | COc1cc2c3nnc(-c4ccccc4)c-3cn(Cc3ccc(F)cc3)c2cc1OC | > 300 µM (not active) | > 300 µM (not active) | – | – | –
10 | CC(=O)N(Cc1c(C#N)c2ccccc2n1C)c1ccccc1 | – | – | > 112 µM (not active) | > 112 µM (not active) | –
11 | O=C(COC(=O)c1ccc(Cl)c(S(=O)(=O)NCc2ccccc2)c1)NCC1CCCO1 (centres undefined) | – | – | > 112 µM (not active) | > 112 µM (not active) | –
12 | Cc1sc(-n2c(C)cc(C=C3C(=O)NC(=O)NC3=O)c2C)c(C#N)c1C | > 300 µM (not active) | > 300 µM (not active) | – | – | –
13 | CCOC(=O)N1CCN(S(=O)(=O)c2ccc(C(=O)Nc3ccc(F)cc3F)cc2)CC1 | – | – | – | – | AC50 (Cytochrome P450 1A2): 6.31 µM (inconclusive); EC50 [5]: 10.9 µM (active); EC50 [3]: 7.91 µM (active); AC50 (Cytochrome P450 2C19): 25.1 µM (inconclusive); AC50 (Cytochrome P450 3A4): 14.1 µM (inconclusive); EC50 [4]: > 120 µM (not active)
14 | NC(=O)c1ccc[n+](Cc2ccccc2)c1 | – | – | > 112 µM (not active) | > 112 µM (not active) | –
15 | COc1cc(C2C(C#N)=C(N)OC3=C2C(=O)CC(C)(C)C3)cc2c1OCO2 (centres undefined) | > 300 µM (not active) | > 300 µM (not active) | – | – | –
16 | CCOC(=O)c1cnc2c(OC)cccc2c1N1CC(C)CC(C)C1 (centres undefined) | – | – | – | – | EC50 [5]: 13.9 µM (active); EC50 [3]: 14.4 µM (active); EC50 [4]: > 120 µM (not active)

Row | Structure (SMILES) | EC50 [1] | EC50 [2] | EC50 [6] | EC50 [7] | other results
17 | CC(C)(C)C(Cn1ccnc1)NC(=O)c1ccc2nc(C3CC3)oc2c1 (centres undefined) | – | – | > 112 µM (not active) | > 112 µM (not active) | –
18 | COc1ccc(C2=Nn3c(nnc3-c3cc(C)[nH]n3)SC2)cc1 | – | – | > 112 µM (not active) | > 112 µM (not active) | –
19 | CC1=C(C#N)C(=O)N(C)C(=O)/C1=C\NNc1ccc(C)c(C)c1 | 40.6 µM (active) | > 300 µM (not active) | – | – | –
20 | COc1ccc(CN2CCCC(C(=O)c3ccc(Cl)cc3)C2)cc1Cn1cccn1 (centres undefined) | – | – | – | – | EC50 [5]: > 120 µM (not active); EC50 [3]: > 120 µM (not active); EC50 [4]: > 120 µM (not active)
21 | Cc1c([N+](=O)[O-])c(N)nn1C | – | – | – | – | EC50 [5]: > 120 µM (not active); EC50 [3]: > 120 µM (not active); EC50 [4]: > 120 µM (not active)
22 | Cc1ccc(S(=O)(=O)NNC(=O)c2ccccc2-n2cccc2)cc1 | – | – | – | – | EC50 [5]: > 120 µM (not active); EC50 [3]: > 120 µM (not active); EC50 [4]: > 120 µM (not active)
23 | COc1ccc(-c2cc(C(F)(F)F)nc(NCc3cccs3)n2)cc1 | – | – | – | – | EC50 [8]: 2.19 µM (active); EC50 (Streptokinase A): 13.8 µM (active); EC50 [9]: > 60 µM (not active); EC50 (Streptococcus): > 150 µM (not active); EC50 [10]: 3.73 µM (active)
24 | O=C(Nc1ccc2oc(-c3ccccc3)nc2c1)C1CCCO1 (centres undefined) | – | – | 25.1 µM (active) | 70.4 µM (active) | –
25 | CC(N)Cc1ccccc1Sc1ccc(O)cc1 (centres undefined) | – | – | > 112 µM (not active) | > 112 µM (not active) | AC50 (Cytochrome P450 2C9): 17.8 µM (inconclusive)
26 | COc1cccc(C(=O)c2cc3ccc(O)cc3oc2=O)c1 | – | – | 1.28 µM (active) | 0.571 µM (active) | –
27 | Cc1ccc(-c2cc(N)n(Cc3ccc(Cl)cc3)n2)cc1 | – | – | > 112 µM (not active) | > 112 µM (not active) | –
28 | N#C/C(=N\Nc1ccc(Cl)cc1)C(=O)c1ccsc1 | 10.8 µM (active) | 81.6 µM (active) | – | – | –
29 | COc1ccc(-n2nc3c(=O)[nH][nH]c3cc2=O)cc1 | 3.67 µM (active) | 13.1 µM (active) | – | – | –
30 | Cc1ccnn1CC(=O)N/N=C/c1c[nH]nc1-c1ccccc1 | – | – | > 112 µM (not active) | > 112 µM (not active) | –
31 | C/C(=N\NC(=O)C1(C)CC1(Br)Br)c1ccc(NC(=O)c2ccc(C)o2)cc1 (centres undefined) | – | – | > 112 µM (not active) | > 112 µM (not active) | –
32 | N#Cc1c(N)nc(SCc2ccccc2)c(C#N)c1-c1ccco1 | > 300 µM (not active) | > 300 µM (not active) | – | – | –

Source: ChEMBL document CHEMBL1201862, “PubChem BioAssay data set” (2004)
